Assay results published in article PMC7827406, “Structure–Activity Relationship (SAR) Study of Spautin-1 to Entail the Discovery of Novel NEK4 Inhibitors” (International Journal of Molecular Sciences, 2021).
Like-named read-outs stand apart in the source and are kept apart here.

Key:
Experiment in all cases: biochemical
Design in all cases: Eurofins KinaseProfiler full panel at Km ATP, residual kinase activity (%) relative to DMSO
Rsk2(h) = biological target: T1, Rsk2(h) (Homo sapiens, UniProt P51812)
T1 construct: gene RPS6KA3
How it was run: (§1)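 Two 10 µM single-concentration screens were run: a competition-binding screen, in which DNA-tagged kinase bound to immobilized ligands was quantified by qPCR, and a radiometric activity panel at Km ATP. Each is expressed as residual kinase activity (%).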

CDKL4(h) = CDKL4(h) (Homo sapiens, UniProt Q5MAI5)
How it was run: as §1

JNK3(h) = biological target: T2, JNK3(h) (Homo sapiens, UniProt P53779)
T2 construct: gene MAPK10
How it was run: as §1

TrkC(h) = biological target: T3, TrkC(h) (Homo sapiens, UniProt Q16288)
T3 construct: gene NTRK3
How it was run: as §1

HRI(h) = biological target: T4, HRI(h) (Homo sapiens, UniProt Q9BQI3)
T4 construct: gene EIF2AK1
How it was run: as §1

Flt3(D835Y)(h) = biological target: T5, Flt3(D835Y)(h) (Homo sapiens, UniProt P36888, D835Y)
T5 sequence (P36888 1-993 D835Y): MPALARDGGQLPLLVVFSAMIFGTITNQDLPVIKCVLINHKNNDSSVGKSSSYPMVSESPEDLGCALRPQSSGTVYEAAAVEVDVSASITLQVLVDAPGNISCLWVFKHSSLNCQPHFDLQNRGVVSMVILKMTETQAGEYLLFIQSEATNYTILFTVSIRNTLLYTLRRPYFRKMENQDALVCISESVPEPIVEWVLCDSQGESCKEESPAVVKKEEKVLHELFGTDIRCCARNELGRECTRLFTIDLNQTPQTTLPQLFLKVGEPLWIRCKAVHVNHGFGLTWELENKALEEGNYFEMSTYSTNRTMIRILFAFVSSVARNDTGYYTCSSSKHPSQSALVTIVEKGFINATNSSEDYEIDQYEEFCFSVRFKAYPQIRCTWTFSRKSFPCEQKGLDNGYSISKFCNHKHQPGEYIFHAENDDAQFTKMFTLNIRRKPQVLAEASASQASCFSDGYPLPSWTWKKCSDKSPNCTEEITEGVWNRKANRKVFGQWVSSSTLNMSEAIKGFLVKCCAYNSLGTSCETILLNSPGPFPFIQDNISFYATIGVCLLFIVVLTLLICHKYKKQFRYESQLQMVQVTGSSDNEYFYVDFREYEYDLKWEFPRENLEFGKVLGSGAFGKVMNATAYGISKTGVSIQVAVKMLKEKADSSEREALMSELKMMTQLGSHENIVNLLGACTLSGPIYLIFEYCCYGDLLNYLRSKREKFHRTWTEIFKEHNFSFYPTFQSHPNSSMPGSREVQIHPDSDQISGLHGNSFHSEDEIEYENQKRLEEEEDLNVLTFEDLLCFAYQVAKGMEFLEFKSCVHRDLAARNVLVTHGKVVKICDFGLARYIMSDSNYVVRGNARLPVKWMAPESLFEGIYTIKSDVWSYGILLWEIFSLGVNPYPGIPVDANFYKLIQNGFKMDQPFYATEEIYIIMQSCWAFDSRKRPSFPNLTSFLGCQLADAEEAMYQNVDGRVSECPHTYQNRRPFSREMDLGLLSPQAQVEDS
How it was run: as §1

MLK2(h) = biological target: T6, MLK2(h) (Homo sapiens, UniProt Q02779)
T6 construct: gene MAP3K10
How it was run: as §1

MAPKAP-K2(h) = biological target: T7, MAPKAP-K2(h) (Homo sapiens, UniProt P49137)
T7 construct: gene MAPKAPK2
How it was run: as §1

Snk(h) = biological target: T8, Snk(h) (Homo sapiens, UniProt Q9NYY3)
T8 construct: gene PLK2
How it was run: as §1

Pim-2(h) = biological target: T9, Pim-2(h) (Homo sapiens, UniProt Q9P1W9)
T9 construct: gene PIM2
How it was run: as §1

Lyn(m) = Lyn(m) (Mus musculus, UniProt P25911)
How it was run: as §1

JAK2(h) = JAK2(h) (Homo sapiens, UniProt O60674)
How it was run: as §1

[1] = read-out: Residual activity (%) Spautin-1 5aa
[2] = read-out: Residual activity (%) 5as
[3] = read-out: Residual activity (%) 5at
[4] = read-out: Residual activity (%) 5ay

T4 sequence (Q9BQI3 whole entry): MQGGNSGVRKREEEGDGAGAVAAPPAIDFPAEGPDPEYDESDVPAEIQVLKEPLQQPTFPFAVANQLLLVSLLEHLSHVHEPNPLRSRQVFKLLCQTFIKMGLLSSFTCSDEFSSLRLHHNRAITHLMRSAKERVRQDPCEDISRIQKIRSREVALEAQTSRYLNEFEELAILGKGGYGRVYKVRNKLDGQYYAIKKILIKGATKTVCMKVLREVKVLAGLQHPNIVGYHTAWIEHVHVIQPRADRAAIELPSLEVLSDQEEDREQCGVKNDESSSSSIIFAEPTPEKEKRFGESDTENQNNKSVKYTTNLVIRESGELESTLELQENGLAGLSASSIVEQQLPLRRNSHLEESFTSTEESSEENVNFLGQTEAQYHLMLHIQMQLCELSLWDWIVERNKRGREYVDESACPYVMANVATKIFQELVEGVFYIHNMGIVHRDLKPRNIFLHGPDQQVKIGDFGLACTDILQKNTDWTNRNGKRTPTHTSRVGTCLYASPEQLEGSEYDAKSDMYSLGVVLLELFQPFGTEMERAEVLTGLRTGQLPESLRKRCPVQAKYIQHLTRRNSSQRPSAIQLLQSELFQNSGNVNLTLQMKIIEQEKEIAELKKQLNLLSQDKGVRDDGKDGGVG
Chain of CDKL4(h) (Q5MAI5 whole entry): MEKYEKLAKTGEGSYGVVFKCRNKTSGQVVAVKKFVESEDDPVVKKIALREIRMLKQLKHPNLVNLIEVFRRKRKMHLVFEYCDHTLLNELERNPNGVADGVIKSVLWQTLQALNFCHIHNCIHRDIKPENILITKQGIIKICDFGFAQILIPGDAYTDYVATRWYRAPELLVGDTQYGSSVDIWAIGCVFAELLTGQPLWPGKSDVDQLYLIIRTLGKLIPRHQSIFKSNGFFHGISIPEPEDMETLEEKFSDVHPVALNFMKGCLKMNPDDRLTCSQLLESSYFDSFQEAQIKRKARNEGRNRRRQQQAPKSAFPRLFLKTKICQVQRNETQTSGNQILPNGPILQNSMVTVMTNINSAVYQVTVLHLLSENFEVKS
T2 sequence (P53779 whole entry): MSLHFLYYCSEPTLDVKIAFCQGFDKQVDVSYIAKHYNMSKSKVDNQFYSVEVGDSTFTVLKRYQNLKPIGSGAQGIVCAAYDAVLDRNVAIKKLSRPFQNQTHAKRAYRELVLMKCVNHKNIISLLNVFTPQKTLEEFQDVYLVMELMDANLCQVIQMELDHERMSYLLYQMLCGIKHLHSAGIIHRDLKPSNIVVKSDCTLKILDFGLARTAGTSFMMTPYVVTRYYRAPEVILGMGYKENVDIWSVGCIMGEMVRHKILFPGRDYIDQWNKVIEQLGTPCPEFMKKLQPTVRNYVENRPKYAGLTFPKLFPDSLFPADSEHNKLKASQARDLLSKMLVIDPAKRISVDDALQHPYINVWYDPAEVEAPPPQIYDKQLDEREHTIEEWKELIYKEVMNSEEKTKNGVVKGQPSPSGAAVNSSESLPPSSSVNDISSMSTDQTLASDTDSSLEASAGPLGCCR
T6 sequence (Q02779 whole entry): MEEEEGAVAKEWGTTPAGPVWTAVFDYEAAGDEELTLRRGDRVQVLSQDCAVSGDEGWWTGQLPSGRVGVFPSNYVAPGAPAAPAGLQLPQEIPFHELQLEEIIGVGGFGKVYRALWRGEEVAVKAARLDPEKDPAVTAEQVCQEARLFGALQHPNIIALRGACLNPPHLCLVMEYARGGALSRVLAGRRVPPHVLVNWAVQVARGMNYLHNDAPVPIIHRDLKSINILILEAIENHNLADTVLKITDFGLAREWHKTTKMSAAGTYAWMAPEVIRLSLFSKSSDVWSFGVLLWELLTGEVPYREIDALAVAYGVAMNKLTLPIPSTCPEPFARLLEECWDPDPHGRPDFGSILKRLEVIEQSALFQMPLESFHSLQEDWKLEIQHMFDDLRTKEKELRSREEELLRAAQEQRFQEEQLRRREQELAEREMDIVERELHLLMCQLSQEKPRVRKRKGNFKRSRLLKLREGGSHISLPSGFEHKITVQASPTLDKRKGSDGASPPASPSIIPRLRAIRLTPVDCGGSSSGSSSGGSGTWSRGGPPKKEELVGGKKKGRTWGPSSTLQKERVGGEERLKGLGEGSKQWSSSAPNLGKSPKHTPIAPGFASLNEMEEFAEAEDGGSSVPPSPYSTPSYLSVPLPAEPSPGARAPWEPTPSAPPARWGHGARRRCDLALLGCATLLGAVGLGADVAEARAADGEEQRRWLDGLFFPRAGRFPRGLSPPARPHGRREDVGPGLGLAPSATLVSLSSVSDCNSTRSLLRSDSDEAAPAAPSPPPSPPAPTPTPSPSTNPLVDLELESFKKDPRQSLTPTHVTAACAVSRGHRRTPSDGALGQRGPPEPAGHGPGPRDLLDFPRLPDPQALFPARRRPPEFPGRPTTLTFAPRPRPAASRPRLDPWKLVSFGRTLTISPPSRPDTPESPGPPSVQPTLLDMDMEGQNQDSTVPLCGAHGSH
T1 sequence (P51812 whole entry): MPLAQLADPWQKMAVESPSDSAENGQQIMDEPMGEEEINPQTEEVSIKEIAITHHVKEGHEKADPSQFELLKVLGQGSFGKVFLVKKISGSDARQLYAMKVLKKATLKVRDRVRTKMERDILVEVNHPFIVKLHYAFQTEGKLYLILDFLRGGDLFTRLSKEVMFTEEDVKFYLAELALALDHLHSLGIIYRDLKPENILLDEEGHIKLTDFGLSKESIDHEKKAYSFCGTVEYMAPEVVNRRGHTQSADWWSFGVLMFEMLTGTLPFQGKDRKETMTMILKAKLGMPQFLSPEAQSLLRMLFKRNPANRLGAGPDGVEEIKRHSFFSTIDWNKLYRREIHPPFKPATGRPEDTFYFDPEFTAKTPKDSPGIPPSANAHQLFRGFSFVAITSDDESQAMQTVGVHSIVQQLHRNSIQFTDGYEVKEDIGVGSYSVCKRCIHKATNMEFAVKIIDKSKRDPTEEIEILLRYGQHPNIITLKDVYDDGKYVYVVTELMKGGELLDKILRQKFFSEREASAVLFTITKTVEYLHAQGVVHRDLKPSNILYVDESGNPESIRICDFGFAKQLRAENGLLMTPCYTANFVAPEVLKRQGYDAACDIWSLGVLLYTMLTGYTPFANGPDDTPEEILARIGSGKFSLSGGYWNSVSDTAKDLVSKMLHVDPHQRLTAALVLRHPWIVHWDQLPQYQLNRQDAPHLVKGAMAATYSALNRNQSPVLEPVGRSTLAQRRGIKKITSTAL
Chain of Lyn(m) (P25911 whole entry): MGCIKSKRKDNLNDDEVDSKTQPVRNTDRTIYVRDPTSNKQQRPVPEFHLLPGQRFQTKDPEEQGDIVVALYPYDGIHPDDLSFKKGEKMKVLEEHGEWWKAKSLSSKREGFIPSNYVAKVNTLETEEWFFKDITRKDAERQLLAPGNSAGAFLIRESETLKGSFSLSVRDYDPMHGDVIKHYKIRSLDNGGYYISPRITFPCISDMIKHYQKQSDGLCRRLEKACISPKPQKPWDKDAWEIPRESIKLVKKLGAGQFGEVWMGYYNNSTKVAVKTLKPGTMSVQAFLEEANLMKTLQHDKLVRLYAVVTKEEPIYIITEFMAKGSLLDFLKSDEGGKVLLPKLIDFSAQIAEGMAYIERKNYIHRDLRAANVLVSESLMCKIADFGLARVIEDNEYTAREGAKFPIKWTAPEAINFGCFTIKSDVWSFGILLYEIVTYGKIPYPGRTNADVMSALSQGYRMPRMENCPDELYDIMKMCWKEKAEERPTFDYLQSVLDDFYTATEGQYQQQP
Chain of JAK2(h) (O60674 whole entry): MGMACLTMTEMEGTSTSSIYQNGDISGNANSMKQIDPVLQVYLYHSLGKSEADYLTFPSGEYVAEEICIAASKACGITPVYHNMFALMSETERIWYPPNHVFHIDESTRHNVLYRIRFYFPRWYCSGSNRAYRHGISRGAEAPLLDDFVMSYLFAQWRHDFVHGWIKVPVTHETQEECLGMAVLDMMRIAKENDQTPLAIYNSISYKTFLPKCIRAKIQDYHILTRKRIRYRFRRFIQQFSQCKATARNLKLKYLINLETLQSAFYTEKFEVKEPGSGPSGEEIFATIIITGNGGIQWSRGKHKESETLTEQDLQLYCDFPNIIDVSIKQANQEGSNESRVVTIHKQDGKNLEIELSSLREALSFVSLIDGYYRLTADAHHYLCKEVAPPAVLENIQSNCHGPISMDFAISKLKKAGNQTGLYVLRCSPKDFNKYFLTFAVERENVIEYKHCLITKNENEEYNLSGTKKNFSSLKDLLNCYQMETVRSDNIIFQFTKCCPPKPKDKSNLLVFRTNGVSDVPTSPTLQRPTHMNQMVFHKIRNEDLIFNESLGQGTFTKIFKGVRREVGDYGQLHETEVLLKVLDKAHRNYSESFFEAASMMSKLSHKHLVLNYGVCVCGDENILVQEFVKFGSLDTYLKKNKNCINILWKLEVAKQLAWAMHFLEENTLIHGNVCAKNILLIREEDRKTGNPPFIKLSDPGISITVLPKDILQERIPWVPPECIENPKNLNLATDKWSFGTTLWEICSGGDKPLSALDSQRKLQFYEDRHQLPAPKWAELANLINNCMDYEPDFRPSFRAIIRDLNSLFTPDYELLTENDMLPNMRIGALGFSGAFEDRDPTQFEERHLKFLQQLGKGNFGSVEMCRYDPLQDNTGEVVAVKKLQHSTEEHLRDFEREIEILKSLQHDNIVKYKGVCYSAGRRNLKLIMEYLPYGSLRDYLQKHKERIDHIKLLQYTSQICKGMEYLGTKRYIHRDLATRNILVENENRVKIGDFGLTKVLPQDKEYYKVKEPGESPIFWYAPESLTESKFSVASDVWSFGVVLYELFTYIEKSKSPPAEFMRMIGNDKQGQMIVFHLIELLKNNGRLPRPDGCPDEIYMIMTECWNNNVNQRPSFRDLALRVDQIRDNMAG

Structure (SMILES): Fc1ccc(CNc2ncnc3ccc(F)cc23)cc1 [5aa, 6-Fluoro-N-(4-fluorobenzyl)-4-Quinazolinamine]
- remaining activity at 10 µM (Rsk2(h); [1]): 93%
- remaining activity at 10 µM (CDKL4(h); [1]): 73%
- remaining activity at 10 µM (JNK3(h); [1]): 90%
- remaining activity at 10 µM (TrkC(h); [1]): 111%
- remaining activity at 10 µM (HRI(h); [1]): 96%
- remaining activity at 10 µM (Flt3(D835Y)(h); [1]): 91%
- remaining activity at 10 µM (MLK2(h); [1]): 95%
- remaining activity at 10 µM (MAPKAP-K2(h); [1]): 79%
- remaining activity at 10 µM (Snk(h); [1]): 98%
- remaining activity at 10 µM (Pim-2(h); [1]): 80%
- remaining activity at 10 µM (Lyn(m); [1]): 81%
- remaining activity at 10 µM (JAK2(h); [1]): 91%

Structure (SMILES): Fc1ccc(CCNc2ncnc3ccc(F)cc23)cc1 [5as, 6-Fluoro-N-[2-(4-Fluorophenyl)Ethyl]-4-Quinazolinamine]
- remaining activity at 10 µM (Rsk2(h); [2]): 79%
- remaining activity at 10 µM (CDKL4(h); [2]): 94%
- remaining activity at 10 µM (JNK3(h); [2]): 98%
- remaining activity at 10 µM (TrkC(h); [2]): 104%
- remaining activity at 10 µM (HRI(h); [2]): 99%
- remaining activity at 10 µM (Flt3(D835Y)(h); [2]): 87%
- remaining activity at 10 µM (MLK2(h); [2]): 97%
- remaining activity at 10 µM (MAPKAP-K2(h); [2]): 85%
- remaining activity at 10 µM (Snk(h); [2]): 89%
- remaining activity at 10 µM (Pim-2(h); [2]): 73%
- remaining activity at 10 µM (Lyn(m); [2]): 91%
- remaining activity at 10 µM (JAK2(h); [2]): 93%

Structure (SMILES): Fc1ccc2ncnc(NCCc3ccc(Cl)cc3)c2c1 [5at, N-[2-(4-Chlorophenyl)Ethyl]-6-Fluoro-4-Quinazolinamine]
- remaining activity at 10 µM (Rsk2(h); [3]): 73%
- remaining activity at 10 µM (CDKL4(h); [3]): 92%
- remaining activity at 10 µM (JNK3(h); [3]): 107%
- remaining activity at 10 µM (TrkC(h); [3]): 97%
- remaining activity at 10 µM (HRI(h); [3]): 101%
- remaining activity at 10 µM (Flt3(D835Y)(h); [3]): 80%
- remaining activity at 10 µM (MLK2(h); [3]): 93%
- remaining activity at 10 µM (MAPKAP-K2(h); [3]): 97%
- remaining activity at 10 µM (Snk(h); [3]): 100%
- remaining activity at 10 µM (Pim-2(h); [3]): 70%
- remaining activity at 10 µM (Lyn(m); [3]): 77%
- remaining activity at 10 µM (JAK2(h); [3]): 86%

Structure (SMILES): COc1ccc2ncnc(Nc3cccc(F)c3)c2c1 [5ay, N-(3-Fluorophenyl)-6-Methoxy-4-Quinazolinamine]
- remaining activity at 10 µM (Rsk2(h); [4]): 70%
- remaining activity at 10 µM (CDKL4(h); [4]): 38%
- remaining activity at 10 µM (JNK3(h); [4]): 90%
- remaining activity at 10 µM (TrkC(h); [4]): 114%
- remaining activity at 10 µM (HRI(h); [4]): 99%
- remaining activity at 10 µM (Flt3(D835Y)(h); [4]): 49%
- remaining activity at 10 µM (MLK2(h); [4]): 96%
- remaining activity at 10 µM (MAPKAP-K2(h); [4]): 80%
- remaining activity at 10 µM (Snk(h); [4]): 80%
- remaining activity at 10 µM (Pim-2(h); [4]): 76%
- remaining activity at 10 µM (Lyn(m); [4]): 93%
- remaining activity at 10 µM (JAK2(h); [4]): 108%
